Patent US20230303512A1, “MODULATORS OF MYB-MEDIATED TRANSCRIPTION AND USES THEREOF” (Massachusetts Institute of Technology, priority 2020, published 2023)
Values joined by “and” are separate entries in the source; they are usually repeats but may differ in a detail not shown here. Identical values can stand only once. “Also recorded” adds a separate entry of the source.

Assays:
[1] = system: Jurkat; test: Cell Titer Glo viability assay, Jurkat; format: cell-based; details: Homo sapiens, read-out: IC50 Cell Titer Glow Viability Jurkat
[2] = system: endogenous MYB; test: 5×MRE-luciferase reporter assay in Jurkat cells; format: cell-based; details: Homo sapiens, 5×MRE firefly luciferase, 18 hours, normalized to DMSO
Experimental: (§1) An assay using a 5×Myb-response element (MRE)-luciferase construct was used to evaluate the compounds' ability to bind MYB and/or disrupt the MYB-NFIB interaction. The 5×MRE reporter was conducted in both HEK293T cells and Jurkat cells, and for the HEK293T system a transient transfection of plasmid vectors expressing either MYB or MYB-NFIB, and a plasmid containing the 5×MRE promoter sequence cloned upstream of Firefly luciferase were used. For the Jurkat system, the reporter was driven by endogenous MYB, and the 5×MRE construct was transiently transfected. Cells were treated with two different high concentrations of each compound (10 and 20 µM) and the luciferase activity was measured 18 hours post-treatment. Individual wells were normalized for viability (cell count) using the Cyto-tox One assay (Promega).
Jurkat cells were reverse transfected at a density of 40,000 cells/well at the time of plating with a plasmid encoding 5×MRE reporter construct driving firefly luciferase expression. 4 hours following transfection, the compound analogs were added using a Tecan transfer tool to the wells. The plate was incubated for 18 hours, and then firefly luciferase signal was measured using promega Steady-glo luciferase assay system according to the manufacturer's protocols. The signal was normalized to control wells which were treated with DMSO vehicle.

[3] = system: c-Myb; test: 5×MRE-luciferase reporter assay in HEK293T cells; format: cell-based; details: Homo sapiens, HEK-293T; c-Myb plus 5×MRE firefly luciferase transfected, 18 hours, normalized to DMSO
Experimental: as §1
HEK293T cells were plated at a density of 7500 cells/well in a 384-well plate. The following day, the cells were transfected with plasmids encoding 1)c-Myb under control of a CMV promoter, 2) 5×MRE reporter construct driving firefly luciferase expression in a 1:2 ratio. 4 hours following transfection, compound analogs were added using a Tecan transfer tool to the wells. The plate was incubated for 18 hours, and then firefly luciferase signal measured using promega Dual-Glo luciferase assay system according to the manufacturer's protocols. The signal was normalized to control wells which were treated with DMSO vehicle.

[4] = system: Molt4-5×MRE-FLuc cells; test: Cell-Titer Glo viability assay, Molt4-5×MRE-FLuc cells; format: cell-based; details: 4 hours; read-out: IC50 Cell Titer Glo Molt4-5xMRE-FLuc Viability
Experimental: Molt4-5×MRE-FLuc cells were plated at a density of 10000 cells/well in 25 uL of media in a 384-well plate. The following day, compound analogs were added using a Tecan transfer tool. The plates were incubated for 4 hours, and then the viability was measured using promega Cell-titer glo assay according to the manufacturer's protocols.

[5] = system: MM1.S, a multiple myeloma line; test: Cell Titer Glo assay, MM1.S; format: cell-based; details: Homo sapiens, FIG. 3B
Text: FIG. 3B is a plot showing Cell Titer Glo assay results for KI-TM-001 in several hematopoietic lines versus prostate and ovarian cell lines.
(§2) Efforts have also included assessment of impact on viable cell growth using traditional luminescent cell viability assays (e.g., CellTiter-Glo™ or GTG) and high-throughput profiling in barcoded and pooled cancer cell lines. Collaboration with the Broad Institute's PRISM cell profiling platform provided the ability to survey sensitivity to KI-TM-001 against 800 cancer cell lines representing a broad spectrum of lineages, including 300 suspension lines and 500 adherent lines.
(§3) Roughly 650 of the lines passed quality control analyses. […] The CTG assay is well established has been used to survey viability of cell lines used routinely in the lab, noting a separation between solid tumor lines and hematopoetic lineages (FIG. 3B).

[6] = system: MYB-NFIB fusion protein; test: Initial binding studies, MYB-NFIB
Experimental: (§4) Next, analogues of KI-TM1-001 were prepared and evaluated. Compounds of Formula (I) may be prepared using the synthetic schemes and procedures described in detail below.

[7] = system: 800 cancer cell lines; test: PRISM cell profiling in barcoded and pooled cancer cell lines; format: cell-based
Text: as §2, §3

[8] = biological target: T1, MYB-TAF12 interaction (Homo sapiens, UniProt P10242); test: In-cell BRET protein-protein interaction assay; format: cell-based; details: FIG. 1B, read-out: IC50 for blocking the MYB-TAF12 interaction
T1 construct: BRET donor or acceptor fusion (which one is not specified); expressed in transfected cells
Experimental: (§5) In-cell bioluminescence resonance energy transfer (BRET) assays were developed to assess the influence of the compounds on MYB-p300 and MYB-TAF12 interactions (FIG. 1A). […] The ability of KI-TM-001 to modulate MYB protein and transcript levels in MOLT4 and Jurkat cells was also evaluated. […] Degradation appears to be proteasome-dependent as MYB can be rescued by treatment with the proteasome inhibitor MG132.

[9] = biological target: T2, MYB (Homo sapiens, UniProt P10242); test: MYB protein levels in MOLT4 and Jurkat cells; format: cell-based; parameters: endogenous in cells; host or cells: MOLT4 and Jurkat cells
Experimental: FIG. 2 is a plot showing a dose curve of KI-TM-001, and its effect on MYB protein levels in Molt4 at the 6 hour timepoint.
as §5
Target sequence in this assay (P10242 whole entry): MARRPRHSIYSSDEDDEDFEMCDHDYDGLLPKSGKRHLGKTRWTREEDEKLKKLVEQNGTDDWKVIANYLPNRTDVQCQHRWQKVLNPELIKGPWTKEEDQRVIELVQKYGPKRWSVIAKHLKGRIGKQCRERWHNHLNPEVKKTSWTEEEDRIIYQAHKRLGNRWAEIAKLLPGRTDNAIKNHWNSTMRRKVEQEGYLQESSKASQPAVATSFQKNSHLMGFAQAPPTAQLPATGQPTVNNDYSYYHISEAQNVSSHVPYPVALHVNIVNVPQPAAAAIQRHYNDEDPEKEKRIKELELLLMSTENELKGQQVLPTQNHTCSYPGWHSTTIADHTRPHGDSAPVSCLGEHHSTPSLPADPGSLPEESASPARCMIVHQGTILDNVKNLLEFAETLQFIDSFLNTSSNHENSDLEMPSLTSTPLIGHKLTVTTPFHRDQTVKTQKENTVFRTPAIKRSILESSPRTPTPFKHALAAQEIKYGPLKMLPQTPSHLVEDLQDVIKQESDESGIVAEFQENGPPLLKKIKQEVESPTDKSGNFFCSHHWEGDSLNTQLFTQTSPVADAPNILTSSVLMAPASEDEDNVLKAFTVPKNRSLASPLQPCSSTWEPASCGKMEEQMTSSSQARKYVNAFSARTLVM

[10] = system: APL line NB4; test: PRISM cell profiling, NB4; format: cell-based; details: PRISM data set
Text: as §2, §3

[11] = system: endogenous Myb protein; test: Molt4-5×MRE-FLuc reporter assay; format: cell-based; details: 4 hours, One-Glo, normalized to DMSO; read-out: IC50 Molt4-5xMRE-FLuc Reporter
Experimental: Molt4 cells were stably transduced with a lentiviral construct encoding a 5×MRE Myb-responsive promoter driving firefly luciferase expression. The reporter output is controlled by the levels/activity of endogenous Myb protein in the Molt4 cell line.
Molt4-5×MRE-FLuc cells were plated at a density of 10000 cells/well in 25 uL of media in a 384-well plate. Compound analogs were added using a Tecan transfer tool to the wells. The plate was incubated for 4 hours, and then firefly luciferase signal measured using promega One-Glo luciferase assay system according to the manufacturer's protocols. The signal was normalized to control wells which were treated with DMSO vehicle.

[12] = biological target: T2, MYB; test: Initial binding studies, MYB
Experimental: as §4
Target sequence in this assay (P10242 whole entry, species assumed): as the sequence (P10242 whole entry) above

T1 sequence (P10242 whole entry, the tested form may be a part): as the sequence (P10242 whole entry) above

Structure (SMILES)	IC50 [1]	IC50 [2]	IC50 [3]	also measured
Cc1cc(NCCCNCc2cccc(N3CCCC3)c2)nc(N)n1 [drawing 243]	> 30 µM	8.55 µM		
COc1cccc(CNC2CCN(c3cc(C)nc(N)n3)CC2)c1 [drawing 238]	> 30 µM	30.1 µM	> 40 µM	
Cc1cc(N2CCC(NCc3cccc(-n4cccc4)c3)CC2)nc(N)n1 [drawing 236]	21.6 µM	12.1 µM	14.8 µM	
CCN(CC)c1ccc(CNC2CCN(c3cc(C)nc(N)n3)CC2)cc1 [drawing 246]			> 30 µM	
Cc1cc(N2CCC(NCc3cccc(C(C)(C)C)c3)CC2)nc(N)n1 [drawing 245]			> 30 µM	
Cc1cc(N2CCC(NCc3cccc(N(C)C)c3)CC2)nc(N)n1 [drawing 237]	> 30 µM	> 40 µM	> 40 µM	
Cc1cc(N2CCC(NCc3cccc(N4CCCC4)c3)CC2)nc(N)n1 [KI-TM1-001, 4-Methyl-6-(4-((3-(pyrrolidin-1-yl)benzyl)amino)piperidin-1-yl)pyrimidin-2-amine]				IC50 [4]: > 40 µM; GI50 [5]: 2.01 µM; binding to MYB-NFIB fusion protein [6]: binds; IC50 ([7]; PRISM data set, read-out: IC50 in a number of hematopoietic lines): < 1 µM; lineages most impacted / lineage enrichment (median AUC versus lineage) ([7]; PRISM, roughly 650 lines passed quality control, FIG. 3A, listed as KI-TM-001): rhabdomysosarcoma, multiple myeloma, lymphoma, and leukemia; also recorded: mild enrichment for leukemia, lymphoma, multiple myeloma and rhabdomyosarcoma (RMS) cell lines; IC50 [8]: 7.07 µM and 7.1 µM; time to impact on MYB protein levels ([9]; MOLT4 and Jurkat cells): ≤ 2 h; mechanism of MYB degradation ([9]; MYB rescued by the proteasome inhibitor MG132): proteasome-dependent; effect on MYB protein levels ([9]; different cell lines (MOLT4, Jurkat), FIG. 1C-E, FIG. 2, listed as KI-TM-001): dose-dependent reduction of MYB protein; also recorded: dose-dependent manner; IC50 [10]: 0.21 µM; IC50 [11]: 13.6 µM; binding to MYB [12]: binds
Cc1cc(N2CCC(NCc3ccc(N4CCCC4)cc3)CC2)nc(N)n1 [drawing 233]	> 30 µM	17.3 µM	> 40 µM	
Cc1cc(N2CCC(NCc3cccc(N4CCCC4)c3)CC2)ncn1 [drawing 244]			> 30 µM	
Cc1cc(N2CCC(NC(=O)c3cccc(N4CCCC4)c3)CC2)nc(N)n1 [drawing 234]	> 30 µM	11.1 µM	> 40 µM	
Cc1cc(N2CCC(NCc3cccc(-n4cccn4)c3)CC2)nc(N)n1	> 30 µM	30.6 µM	> 40 µM	
Cc1cc(N2CCC(NCc3cccc(N4CCCC4)c3)CC2)nc(N)n1 [drawing 228]	3.24 µM	3.49 µM	15.9 µM	
CC(=O)N(Cc1cccc(N2CCCC2)c1)C1CCN(c2cc(C)nc(N)n2)CC1 [drawing 231]	> 30 µM	11 µM		
Cc1cc(N2CCC(N(Cc3cccc(N4CCCC4)c3)C(=O)NC(C)C)CC2)nc(N)n1 [drawing 230]	> 30 µM	26.4 µM		

Further lines, with some results ahead:

IC50 [1]	Structure (SMILES)	IC50 [2]	IC50 [3]	also measured
> 30 µM	Cc1cc(N2CCC(NCc3ccccc3)CC2)nc(N)n1	25.7 µM	> 40 µM	
4.41 µM	Cc1cc(N2CCC[C@@H](NCc3cccc(N4CCCC4)c3)C2)nc(N)n1 [drawing 241]	2.25 µM		
19.7 µM	Cc1cc(N2CCC[C@H](NCc3cccc(N4CCCC4)c3)C2)nc(N)n1 [drawing 242]	8.08 µM		
> 30 µM	Cc1cc(N2CCC(NCc3ccccc3N3CCCC3)CC2)nc(N)n1 [drawing 232]	3.09 µM	> 40 µM	
> 30 µM	Cc1cc(N2CCC(NCc3cccc(-n4ccnc4)c3)CC2)nc(N)n1 [drawing 240]	25.7 µM	> 40 µM	
11.2 µM	Cc1cc(N2CCC(NCc3cccc(N4CCCCC4)c3)CC2)nc(N)n1 [drawing 235]	4.18 µM	25.2 µM	
